Tests used:
[1] = test system: tumor necrosis factor (α); experiment: Cytokine induction in human cells: tumor necrosis factor (α) secreted by PBMCs, ELISA; assay type: cell-based; settings: PBMC, incubated 18 to 24 hours, TNF determined by ELISA, read-out: Lowest Effective Concentration (μM) Tumor Necrosis Factor
In short: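 Human donor PBMCs at final 1.5-2×10^6 cells/mL in RPMI with 10% FBS incubated 18 to 24 h at 37° C. with serially diluted compound, DMSO at most 1% final. Supernatant TNF-α measured by ELISA; value is the lowest concentration inducing TNF.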

interferon (α) = experiment: Cytokine induction in human cells: interferon secreted by PBMCs, bioassay (A549 cells challenged with encephalomyocarditis virus); assay type: cell-based; settings: PBMC, incubated 18 to 24 hours, interferon determined using the bioassay method, read-out: Lowest Effective Concentration (μM) Interferon
Description: An in vitro human blood cell system was used to assess cytokine induction by compounds of the invention. Activity is based on the measurement of interferon and tumor necrosis factor (α) (IFN and TNF, respectively) secreted into culture media as described by Testerman et. al. In “Cytokine Induction by the Immunomodulators Imiquimod and S-27609”, Journal of Leukocyte Biology, 58, 365-372 (September, 1995).
Whole blood is collected by venipuncture into EDTA vacutainer tubes from healthy human donors. Peripheral blood mononuclear cells (PBMCs) are separated from whole blood by density gradient centrifugation using Histopaque®-1077 (Sigma Chemicals, St. Louis, Mo.). The PBMCs are suspended at 3-4×10^6 cells/mL in RPMI 1640 medium containing 10% fetal bovine serum, 2 mM L-glutamine and 1% penicillin/streptomycin solution (RPMI complete). The PBMC suspension is added to 48 well flat bottom sterile tissue culture plates (Costar, Cambridge, Mass. or Becton Dickinson Labware, Lincoln Park, N.J.) containing an equal volume of RPMI complete media containing test compound.
The compounds are solubilized in dimethyl sulfoxide (DMSO). The DMSO concentration should not exceed a final concentration of 1% for addition to the culture wells.
The solution of test compound is added at 60 μM to the first well containing RPMI complete and serial (three fold or ten fold) dilutions are made. The PBMC suspension is then added to the wells in an equal volume, bringing the test compound concentrations to the desired range. The final concentration of PBMC suspension is 1.5-2×10^6 cells/mL. The plates are covered with sterile plastic lids, mixed gently and then incubated for 18 to 24 hours at 37° C. in a 5% carbon dioxide atmosphere.
Following incubation the plates are centrifuged for 5-10 minutes at 1000 rpm (˜200×g) at 4° C. The cell culture supernatant is removed with a sterile polypropylene pipet and transferred to sterile polypropylene tubes. Samples are maintained at −30 to −70° C. until analysis. The samples are analyzed for interferon (α) by either ELISA or bioassay and for tumor necrosis factor (α) by ELISA.
Interferon is determined by bioassay using A549 human lung carcinoma cells challenged with encephalomyocarditis. The details of the bioassay method have been described by G. L. Brennan and L. H. Kronenberg in “Automated Bioassay of Interferons in Micro-test Plates”, Biotechniques, June/July, 78, 1983, incorporated herein by reference. Briefly stated the method is as follows: A549 cells are incubated with dilutions of samples or a standard interferon at 37° C. for 24 hours. The incubated cells are then infected with an inoculum of encephalomyocarditis virus. The infected cells are incubated for an additional 24 hours at 37° C. before evaluating for viral cytopathic effect. The viral cytopathic effect is quantified by staining with crystal violet followed by visual scoring of the plates. Results are expressed as alpha reference units/mL based on the value obtained for NIH Human Leukocyte IFN standard.
The table below lists the lowest concentration found to induce interferon and the lowest concentration found to induce tumor necrosis factor for each compound. […] Unless otherwise indicated, the interferon biosynthesis was determined by ELISA.

Structure (SMILES) | minimal effective concentration [1] [µM] | minimal effective concentration (interferon (α)) [µM]
Nc1nc2ccccc2c2c1ncn2CCCCNC(=O)c1ccccc1Cl [Example 69] | 1.11 | 0.12
Nc1nc2ccccc2c2c1ncn2CCCCNC(=O)C1CC1 [Example 81] | 30 | 3.33
Nc1nc2ccccc2c2c1ncn2CCCCNC(=O)c1c(F)c(F)c(F)c(F)c1F [Example 68] | 10 | 1.11
COc1ccc(C(=O)NCCCCn2cnc3c(N)nc4ccccc4c32)cc1 [Example 74] | 10 | 0.37
Nc1nc2ccccc2c2c1ncn2CCCCNC(=O)C1CCCCC1 [Example 84] | 10 | 0.12
Nc1nc2ccccc2c2c1ncn2CCCCNC(=O)c1c(Cl)cccc1Cl [Example 71] | 3.33 | 0.12
Nc1nc2ccccc2c2c1ncn2CCCCNC(=O)C1CCCC1 [Example 82] | 10 | 0.12
Nc1nc2ccccc2c2c1ncn2CCCCNC(=O)c1ccc(F)cc1 [Example 72] | 10 | 0.37
Nc1nc2ccccc2c2c1ncn2CCCCNC(=O)/C=C/c1ccccc1 [Example 79] | > 30 | 0.37
Nc1nc2ccccc2c2c1ncn2CCCCNC(=O)Cc1ccccc1 [Example 78] | 10 | 0.12
